Data reported in patent publication US20240228458A1, “PYRIMIDINE DERIVATIVE HAVING PROTEIN KINASE INHIBITORY ACTIVITY, AND THERAPEUTIC PHARMACEUTICAL COMPOSITION COMPRISING SAME” (THERAPEX CO., LTD., priority 2021, published 2024).

Key:
Type in all cases: cell-based
[1] = tested on: Ba/F3 cells expressing EGFR-wt; experiment: Growth inhibition (GI50) of Ba/F3 cells expressing EGFR-wt, Celltiter glo; settings: Mus musculus, BaF3, 72 h
Outline: (§1)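 Ba/F3 cells carrying each EGFR variant were plated at 100,000 cells/ml; after 4 h, compound was added as 10-point 4-fold dilutions (top stock 2 mM, 0.5% DMSO). After 72 h at 37 °C, viability was read by CellTiter-Glo; GI50 is the molar concentration (μM) giving 50% growth inhibition.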

[2] = tested on: Ba/F3 cells expressing del19/T790M/C797S (EGFR-DTC); experiment: Growth inhibition (GI50) of Ba/F3 cells expressing del19/T790M/C797S (EGFR-DTC), Celltiter glo; settings: Mus musculus, BaF3, 72 h
Outline: as §1

[3] = tested on: Ba/F3 cells expressing L858R/T790M/C797S (EGFR-LTC); experiment: Growth inhibition (GI50) of Ba/F3 cells expressing L858R/T790M/C797S (EGFR-LTC), Celltiter glo; settings: Mus musculus, BaF3, 72 h
Outline: as §1

[4] = tested on: Ba/F3 cells expressing del19/T790M (EGFR-DT); experiment: Growth inhibition (GI50) of Ba/F3 cells expressing del19/T790M (EGFR-DT), Celltiter glo; settings: Mus musculus, BaF3, 72 h
Description: (§2) In this experimental example, a determination was made as to whether the compounds prepared in Examples 1-283 have the ability to inhibit the growth of Ba/F3 cells expressing EGFR-wt, del19/T790M/C797S (EGFR-DTC), L858R/T790M/C797S (EGFR-LTC), del19/T790M (EGFR-DT), and L858R/T790M (EGFR-LT) variants.
(§3) The parental Ba/F3 cell line is a population of cells that are not introduced with EGFR variants. Specifically, 100 μl of a cell line expressing each variant was plated in a 96-well plate at a density of 100,000 cells/ml. 10-point, 4-fold serial dilutions of each compound were prepared, starting at 2 mM. After 4 h, 0.5 μl of the compound (0.5% DMSO) was added, followed by incubation at 37° C. and 5% CO2 for 72 h. After incubation, the number of viable cells was measured using a Celltiter glo assay kit (Promega) and the GI50 of the compound was determined. The term “GI50” refers to the molar concentration (μM) of the compound required for 50% growth inhibition of cells.

[5] = tested on: Ba/F3 cells expressing L858R/T790M (EGFR-LT); experiment: Growth inhibition (GI50) of Ba/F3 cells expressing L858R/T790M (EGFR-LT), Celltiter glo; settings: Mus musculus, BaF3, 72 h
Description: as §2, §3

parental Ba/F3 cell line = experiment: Growth inhibition (GI50) of the parental Ba/F3 cell line (not introduced with EGFR variants), Celltiter glo; settings: Mus musculus, BaF3, 72 h, parental Ba/F3 cells
Outline: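 Parental Ba/F3 cells (100,000 cells/ml) were treated with 10-point, 4-fold compound dilutions (0.5% DMSO; top stock 2 mM) for 72 h at 37 °C, 5% CO2. Viability was read by CellTiter-Glo; GI50 is the concentration (μM) giving 50% growth inhibition.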

| GI50 [1] [nM] | GI50 [2] [nM] | GI50 [3] [nM] | GI50 [4] [nM] | GI50 [5] [nM] | SMILES | GI50 (parental Ba/F3 cell line) [nM] |
| --- | --- | --- | --- | --- | --- | --- |
| 100 to 500 | 25 to 100 | 25 to 100 | 100 to 500 | 100 to 500 | COc1nc(N2CCC(N3CCN(C)CC3)CC2)c(C)cc1Nc1ncc(Cl)c(Nc2ccc3nccnc3c2NS(C)(=O)=O)n1 [Example 134, N-(6-((5-chloro-2-((2-methoxy-5-methyl-6-(4-(4-methylpiperazin-1-yl)piperidin-1-yl)pyridin-3-yl)amino)pyrimidin-4-yl)amino)quinoxalin-5-yl)methanesulfonamide] | 100 to 500 |
| 100 to 500 | 1 to 25 | 1 to 25 | 1 to 25 | 25 to 100 | COc1ccc(NS(C)(=O)=O)c(Nc2nc(Nc3cc(C)c(N4CCC(N5CCN(C)CC5)CC4)cc3OC)ncc2Cl)c1 [Example 199, N-(2-((5-chloro-2-((2-methoxy-5-methyl-4-(4-(4-methylpiperazin-1-yl)piperidin-1-yl)phenyl)amino)pyrimidin-4-yl)amino)-4-methoxyphenyl)methanesulfonamide] | 100 to 500 |
| 2000 to 10000 | 500 to 2000 |  | 500 to 2000 | 2000 to 10000 | COc1nc(N2CCC(N3CCN(C)CC3)CC2)ccc1Nc1ncc(Cl)c(N(c2ccc3scnc3c2NS(C)(=O)=O)S(C)(=O)=O)n1 [Example 111, N-(5-chloro-2-((2-methoxy-6-(4-(4-methylpiperazin-1-yl)piperidin-1-yl)pyridin-3-yl)amino)pyrimidin-4-yl)-N-(4-(methylsulfonamido)benzo[d]thiazol-5-yl)methanesulfonamide] | 2000 to 10000 |
| 25 to 100 | 25 to 100 | 1 to 25 | 1 to 25 | 1 to 25 | CN1CCN(C2CCN(c3ccc(Nc4ncc(Br)c(Nc5cc6c(cc5NS(C)(=O)=O)CCO6)n4)cc3F)CC2)CC1 [Example 244, N-(6-((5-bromo-2-((3-fluoro-4-(4-(4-methylpiperazin-1-yl)piperidin-1-yl)phenyl)amino)pyrimidin-4-yl)amino)-2,3-dihydrobenzofuran-5-yl)methanesulfonamide] | 100 to 500 |
| 100 to 500 | 25 to 100 | 25 to 100 | 25 to 100 | 100 to 500 | COc1cc(N2CCC(N3CCN(C)CC3)CC2)c(Cl)cc1Nc1ncc(Br)c(Nc2ccc3nccnc3c2P(C)(C)=O)n1 [Example 194, (6-((5-bromo-2-((5-chloro-2-methoxy-4-(4-(4-methylpiperazin-1-yl)piperidin-1-yl)phenyl)amino)pyrimidin-4-yl)amino)quinoxalin-5-yl)dimethylphosphine oxide] | 100 to 500 |
| 500 to 2000 | 1 to 25 | 1 to 25 | 25 to 100 | 25 to 100 | Cc1cc(Nc2ncc(Cl)c(Nc3cc(Cl)ccc3NS(C)(=O)=O)n2)c(Cl)cc1N1CCC(N2CCN(C)CC2)CC1 [Example 158, N-(4-chloro-2-((5-chloro-2-((2-chloro-5-methyl-4-(4-(4-methylpiperazin-1-yl)piperidin-1-yl)phenyl)amino)pyrimidin-4-yl)amino)phenyl)methanesulfonamide] | 2000 to 10000 |
| 100 to 500 | 100 to 500 | 25 to 100 | 25 to 100 | 25 to 100 | Cc1cc(Nc2ncc(Cl)c(Nc3cc(Cl)ccc3NS(C)(=O)=O)n2)c(Cl)cc1N1CCC(N2CCC(N(C)C)C2)CC1 (stereo not shown) [Example 157, N-(4-chloro-2-((5-chloro-2-((2-chloro-4-(4-(3-(dimethylamino)pyrrolidin-1-yl)piperidin-1-yl)-5-methylphenyl)amino)pyrimidin-4-yl)amino)phenyl)methanesulfonamide] | 500 to 2000 |
| 25 to 100 | 1 to 25 | 1 to 25 | 1 to 25 | 1 to 25 | COc1cc(N2CCC(N3CCN(C)CC3)CC2)c(Cl)cc1Nc1ncc(Cl)c(Nc2cc3c(cc2NS(C)(=O)=O)CCO3)n1 [Example 168, N-(6-((5-chloro-2-((5-chloro-2-methoxy-4-(4-(4-methylpiperazin-1-yl)piperidin-1-yl)phenyl)amino)pyrimidin-4-yl)amino)-2,3-dihydrobenzofuran-5-yl)methanesulfonamide] | 2000 to 10000 |
| 100 to 500 | 1 to 25 | 1 to 25 | 1 to 25 | 1 to 25 | COc1cc(N2CCC(N3CCN(C)CC3)CC2)c(C)cc1Nc1ncc(Cl)c(Nc2cc(Cl)ccc2NS(C)(=O)=O)n1 [Example 80, N-(4-chloro-2-((5-chloro-2-((2-methoxy-5-methyl-4-(4-(4-methylpiperazin-1-yl)piperidin-1-yl)phenyl)amino)pyrimidin-4-yl)amino)phenyl)methanesulfonamide] | 2000 to 10000 |
| 1 to 25 | 1 to 25 | 1 to 25 | 1 to 25 | 1 to 25 | COc1cc(N2CCC(N3CCN(C)CC3)CC2)c(Cl)cc1Nc1ncc(Br)c(Nc2cc3c(cc2NS(C)(=O)=O)CCO3)n1 [Example 183, N-(6-((5-bromo-2-((5-chloro-2-methoxy-4-(4-(4-methylpiperazin-1-yl)piperidin-1-yl)phenyl)amino)pyrimidin-4-yl)amino)-2,3-dihydrobenzofuran-5-yl)methanesulfonamide] | 25 to 100 |
| 100 to 500 | 500 to 2000 | 500 to 2000 | 100 to 500 | 500 to 2000 | COc1cc(N2CCC(N3CCCN(C)CC3)CC2)c(C)cc1Nc1ncc(Cl)c(Nc2ccc3c(c2)N(C)CC3)n1 [Example 275] | 500 to 2000 |
| 100 to 500 | 1 to 25 | 1 to 25 | 1 to 25 | 1 to 25 | COc1cc(N2CCC(N3CCN(C)CC3)CC2)c(Cl)cc1Nc1ncc(Cl)c(Nc2cc(Cl)ccc2NS(C)(=O)=O)n1 [Example 151, N-(4-chloro-2-((5-chloro-2-((5-chloro-2-methoxy-4-(4-(4-methylpiperazin-1-yl)piperidin-1-yl)phenyl)amino)pyrimidin-4-yl)amino)phenyl)methanesulfonamide] |  |
| 500 to 2000 | 100 to 500 | 100 to 500 |  |  | COc1cc(N2CCC(N3CCN(C)CC3)CC2)c(C)cc1Nc1ncc(Cl)c(Nc2cc(Cl)ccc2NC(C)=O)n1 [Example 65, N-(4-chloro-2-((5-chloro-2-((2-methoxy-5-methyl-4-(4-(4-methylpiperazin-1-yl)piperidin-1-yl)phenyl)amino)pyrimidin-4-yl)amino)phenyl)acetamide] | 500 to 2000 |
| 100 to 500 | 25 to 100 | 25 to 100 |  |  | COc1cc(N2CCC(N3CCN(C)CC3)CC2)c(Cl)cc1Nc1ncc(Br)c(Nc2cc(Cl)ccc2-c2cnn[nH]2)n1 [Example 195] | 100 to 500 |
| 500 to 2000 | 100 to 500 | 100 to 500 |  |  | COc1nc(N2CCC(N3CCN(C)CC3)CC2)ccc1Nc1ncc(Cl)c(Nc2ccc3nccnc3c2P(C)(C)=O)n1 [Example 123, (6-((5-chloro-2-((2-methoxy-6-(4-(4-methylpiperazin-1-yl)piperidin-1-yl)pyridin-3-yl)amino)pyrimidin-4-yl)amino)quinoxalin-5-yl)dimethylphosphine oxide] | 2000 to 10000 |
| 500 to 2000 | 100 to 500 | 500 to 2000 |  |  | COc1cc(N2CCC(Nc3ccnn3C)CC2)c(C)cc1Nc1ncc(Br)c(Nc2ccc(F)cc2NS(C)(=O)=O)n1 [Example 41, N-(2-((5-bromo-2-((2-methoxy-5-methyl-4-(4-((1-methyl-1H-pyrazol-5-yl)amino)piperidin-1-yl)phenyl)amino)pyrimidin-4-yl)amino)-5-fluorophenyl)methanesulfonamide] | 2000 to 10000 |
| 500 to 2000 | 500 to 2000 | 100 to 500 |  |  | COc1nc(N2CCC(N3CCN(C)CC3)CC2)c(C)cc1Nc1ncc(Cl)c(Nc2cc(Cl)ccc2NC(C)=O)n1 [Example 66, N-(4-chloro-2-((5-chloro-2-((2-methoxy-5-methyl-6-(4-(4-methylpiperazin-1-yl)piperidin-1-yl)pyridin-3-yl)amino)pyrimidin-4-yl)amino)phenyl)acetamide] | 2000 to 10000 |
| 500 to 2000 | 100 to 500 | 100 to 500 |  |  | COc1cc(N2CCC(N3CCN(C)CC3)CC2)c(Cl)cc1Nc1ncc(Cl)c(Nc2cc(C(F)(F)F)ccc2NS(C)(=O)=O)n1 [Example 137, N-(2-((5-chloro-2-((5-chloro-2-methoxy-4-(4-(4-methylpiperazin-1-yl)piperidin-1-yl)phenyl)amino)pyrimidin-4-yl)amino)-4-(trifluoromethyl)phenyl)methanesulfonamide] | 2000 to 10000 |
